Earlier results in patent US20180228146A1, “INSECTICIDAL COMPOSITION AND METHOD” (priority 2014, published 2018).
In brackets after ≈: the same amount, converted by molar mass.

## CCOP(=S)(OCC)Oc1nc(Cl)c(Cl)cc1Cl [chlorpyrifos, O,O-diethyl O-3,5,6-trichloro-2-pyridyl phosphorothioate]
25° C.
  Henry's law constant at 25° C.: 6.76 × 10^−1 Pa m^3 mol^−1
  Vapour pressure at 25° C.: 2.7 mPa
acetone, 25° C.
  Solubility Acetone (25° C.): 6500 g/kg
benzene, 25° C.
  Solubility Benzene (25° C.): 7900 g/kg
Carbon disulfide, 25° C.
  Solubility Carbon disulfide (25° C.): 5900 g/kg
chloroform, 25° C.
  Solubility Chloroform (25° C.): 6300 g/kg
Diethyl ether, 25° C.
  Solubility Diethyl ether (25° C.): 5100 g/kg
hydrolysis, with pH
  Stability: Rate of hydrolysis increases
iso-octanol, 25° C.
  Solubility Iso-octanol (25° C.): 790 g/kg
methanol, 25° C.
  Solubility Methanol (25° C.): 450 g/kg
Phosphate buffer, pH 7, 15° C.
  DT50 (phosphate buffer, pH 7, 15° C.): 100 d
water, 25° C.
  Solubility water (25° C.): 1.4 µg/mL (≈ 3.99 µM)
water, pH 8, 25° C.
  DT50 (water, pH 8, 25° C.): 1.55 d
xylene, 25° C.
  Solubility Xylene (25° C.): 5000 g/kg
